Source: US20040033213A1, “Methods of modulating dendritic cells using adjuvants” (Corixa Corporation, priority 2002, published 2004)

Experiments:
Type in all cases: cell-based
[1] = tested on: cultured human dendritic cells (DC); test: Flow cytometry of cell surface activation markers on human DCs restimulated 72 hours with AGPs (titration)
Experimental: Dendritic cells are developed in-vitro from human CD14+ monocyte precursors using standard 7 day GM-CSF ([…]) and IL-4 ([…]) culture conditions. The cultured DCs are >90% CD11c^+/HLA-DR^+/lineage^− by flow cytometry analysis. FIGS. 15-18 show the results of flow cytometry analysis of gated CD11c^+/HLA-DR^+/lineage^− human DCs after they were restimulated in-vitro for 72 hours in the presence of selected AGPs at a titration range of 0.1 μg/ml-2 μg/ml. Data is expressed as the percent of gated DCs which are positive for the indicated marker (y-axis) versus the logo10 of the AGP or lipid A concentration. R595 LPS was used in each induction at 10 ng/ml as a positive control—the negative control was unstimulated human dendritic cells cultured for 72 hours in the same medium conditions used for AGP stimulation. Data was analyzed using non-linear regression analysis—all data was modeled using a 3rd order polynomial to determiine the best curve fit.

[2] = tested on: cultured human DCs + autologous T cells
[3] = tested on: Human d7 Cultured Dendritic Cells; test: Flow cytometry phenotype analysis of human d7 cultured dendritic cells after 24 h stimulation; conditions: for HLA-DR MFI: 7 day DCs, 24 h stimulation
[4] = tested on: murine bone marrow derived DCs + D011.10 T cells; test: APC function of ova-pulsed, lipid A potentiated murine DCs co-cultured with D011.10 T cells (cytokine ELISA)
From the text: These antigen pulsed, lipid A potentiated cells were then washed thoroughly and titered against ova-specific T cell effector cells in vitro at an APC: T cell ratio titration of 1:1 out to as high as 1:512. The effector T cells in this in vitro assay were the antigen naive, but antigen (ova) specific, MHC restricted I-A^d splenic T cells from transgenic D011.10 mice.
D011.10 TCR-transgenic mice were used in these experiments as donors of antigen specific naive T cells. In their germline DNA these mice contain rearranged TCR-Vα and -Vβ genes that encode a T cell receptor (TCR) specific for the ovalbumin peptide 323-339 bound to IA^d (Balb/c) Class II MHC molecules. The transgenic ova peptide specific TCR can be detected with the KJ1-26 monoclonal antibody (mAb) that binds only to this particular TCR heterodimer. These cells provide a ready source of “normal” antigen (ova)-specific effector T cells. Effective antigen-mediated APC stimulation of those T cells is generally measured by ELISA quantitation of IL-2 or IFN-γ in the culture supernatants of DC+D011.10 T cells after 24-48 hours of incubation.
In one experiment, murine bone marrow derived DCs (6 day cultures) were pulsed with ova (50 μg/ml-5×10^5 cells/ml) and then potentiated overnight with LPS(R595), MPL® immunostimulant-S, RC-527, RC-529 or RC-544 prior to being cultured together with naive D011.10 effector T cells (FIGS. 1-7). The APC function of these DCs as measured by their ability to stimulate IL-2, IFN-γ IL-12 (p70) and IL-12 (p40) secretion in the DC+D011.10 co-culture systems was analyzed. All of the data shown in FIGS. 1-7 was developed from DCs maintained in lipid A induction cultures for either 15 or 38 hours prior to use in the T cell assay.

[5] = Exp. 091698, 24 h, LPS 10 ng/ml, others 100 ng/ml
[6] = Exp. 092398, 24 h, LPS 10 ng/ml, others 100 ng/ml
[7] = Exp. 093098, 24 h, LPS 10 ng/ml, others 100 ng/ml

Compound: CCCCCCCCCCCCCC(=O)O[C@H](CCCCCCCCCCC)CC(=O)NCCO[C@@H]1O[C@H](CO)[C@@H](OP(=O)(O)O)[C@H](OC(=O)C[C@@H](CCCCCCCCCCC)OC(=O)CCCCCCCCCCCCC)[C@H]1NC(=O)C[C@@H](CCCCCCCCCCC)OC(=O)CCCCCCCCCCCCC.CCN(CC)CC [RC-529, 2-[(R)-3-Tetradecanoyloxytetradecanoylamino]ethyl 2-Deoxy-4-O-phosphono-3-O-[(R)-3-tetradecanoyoxytetradecanoyl]-2-[(R)-3-tetradecanoyoxytetradecanoylamino]-β-D-glucopyranoside triethylammonium salt]
- concentration at which the CD80 effect appears to plateau ([1]; 72 hours, FIG. 15): 1 µg/mL
- concentration at which the CD86 effect plateaus or maximizes ([1]; 72 hours, FIG. 18): 1 µg/mL
- cell surface expression of CD80 (in words) ([1]; 72 hours, titration 0.1-2 μg/ml, FIG. 15): lowest overall increase in CD80 expression
- DC expression of CD83 (in words) ([1]; 72 hours, titration 0.1-2 μg/ml, FIG. 16): weak overall increase in CD83 expression
- overall induction of DC maturation and co-stimulatory molecule expression (in words) ([1]; single analysis, one normal donor): very low to marginally positive CD80 and CD83 expression
- T cell proliferation / DC activation, CPM 3H-thymidine response (in words) [2]: comparable in their effect and quantitatively higher than the background response
- CD 1a % positive cells [3, 5]: 94.3%
- CD 1a MFI [3, 5]: 9.29
- CD 4 % positive cells [3, 5]: 77.0%
- CD 4 MFI [3, 5]: 2.44
- CD 14 % positive cells [3, 5]: 7.5%
- CD 35 % positive cells [3, 5]: 47.6%
- CD 35 MFI [3, 5]: 2.66
- CD 40 MFI [3, 5]: 22.0
- CD 44 MFI [3, 5]: 285
- CD 54 MFI [3, 5]: 28.2
- CD 62 L % positive cells [3, 5]: 6.4%
- CD 69 % positive cells [3, 5]: 4.4%
- CD 80 % positive cells [3, 5]: 98.9%
- CD 80 MFI [3, 5]: 6.19
- CD 83 % positive cells [3, 5]: 71.0%
- CD 83 MFI [3, 5]: 2.89
- CD 86 % positive cells [3, 5]: 98.7%
- CD 86 MFI [3, 5]: 9.30
- CD 95 % positive cells [3, 5]: 53.8%
- CD 95 MFI [3, 5]: 1.12
- HLA-DR MFI ([3]; Exp. 091698, LPS 10 ng/ml, others 100 ng/ml): 88.2
- CD 1a % positive cells [3, 6]: 86.5%
- CD 1a MFI [3, 6]: 5.47
- CD 4 % positive cells [3, 6]: 71.6%
- CD 4 MFI [3, 6]: 2.65
- CD 14 % positive cells [3, 6]: 4.2%
- CD 35 % positive cells [3, 6]: 58.8%
- CD 35 MFI [3, 6]: 2.92
- CD 40 MFI [3, 6]: 31.5
- CD 54 MFI [3, 6]: 36.6
- CD 62 L % positive cells [3, 6]: 11.1%
- CD 69 % positive cells [3, 6]: 11.0%
- CD 80 % positive cells [3, 6]: 99.1%
- CD 80 MFI [3, 6]: 8.46
- CD 83 % positive cells [3, 6]: 94.7%
- CD 83 MFI [3, 6]: 3.32
- CD 86 % positive cells [3, 6]: 99.9%
- CD 86 MFI [3, 6]: 25.3
- CD 95 % positive cells [3, 6]: 90.4%
- CD 95 MFI [3, 6]: 1.43
- αC5aR + GAR Alexa % positive cells [3, 6]: 53.4%
- CD 44 MFI ([3]; Exp. 092398, 24 h, LPS 10 ng/ml, others 100 ng/ml, values printed with a trailing +): 442+
- GAR-Alexa % positive cells ([3]; Exp. 092398, 24 h, secondary reagent staining, LPS 10 ng/ml, others 100 ng/ml): 2.4%
- HLA-DR MFI ([3]; Exp. 092398, LPS 10 ng/ml, others 100 ng/ml): 158.8
- CCR 6 % positive cells [3, 7]: 5.3%
- CD 1a % positive cells [3, 7]: 80.1%
- CD 1a MFI [3, 7]: 6.51
- CD 3 % positive cells [3, 7]: 27.3%
- CD 3 MFI [3, 7]: 3.87
- CD 4 % positive cells [3, 7]: 77.9%
- CD 4 MFI [3, 7]: 2.97
- CD 11c % positive cells [3, 7]: 92.4%
- CD 11c MFI [3, 7]: 6.82
- CD 14 % positive cells [3, 7]: 3.9%
- CD 40 MFI [3, 7]: 26.1
- CD 54 MFI [3, 7]: 36.4
- CD 62 L % positive cells [3, 7]: 3.4%
- CD 80 % positive cells [3, 7]: 99.1%
- CD 80 MFI [3, 7]: 10.7
- CD 83 % positive cells [3, 7]: 82.4%
- CD 83 MFI [3, 7]: 3.38
- CD 86 % positive cells [3, 7]: 99.7%
- CD 86 MFI [3, 7]: 22.0
- CD 123 % positive cells [3, 7]: 44.1%
- CD 123 MFI [3, 7]: 1.90
- αC5aR + Alexa 488 % positive cells [3, 7]: 48.6%
- αC5aR + Alexa 488 MFI [3, 7]: 10.4
- HLA-DR MFI ([3]; Exp. 093098, LPS 10 ng/ml, others 100 ng/ml): 161.5
- upregulation of HLA-DR expression (in words) ([3]; RC-529 compared with RC-544, all three experiments): slightly more effective
- stimulating the expression of HLA-DR and co-stimulatory molecules (in words) ([3]; RC-529 compared with RC-544, three experiments): very comparable effects
- IFN-γ release by D011.10 T cells (in words) ([4]; DCs precultured 38 hours, FIG. 3): very comparable to each other
- IL-2 secretion (in words) ([4]; DCs prestimulated 15 hours, all T cell:APC ratios, FIG. 1): comparable in their ability to stimulate IL-2 secretion
- IL-12 (p70) in DC+D011.10 co-cultures (in words) ([4]; FIG. 5): weakest ability
- release of IL-12 (p40) homodimer in DC+D011.10 co-cultures (in words) ([4]; FIG. 7): moderately less potent than either RC-544 or MPL® immunostimulant-S
